The source of these data is publication PMC6268294, “Synthesis of Chalcones with Anticancer Activities” (Molecules, 2012).

Data set [1] relates to human normal liver cell line WRL-68. Briefly: MTT cell viability assay, WRL68. Type of data set: cell-based. Particulars: 24 h treatment. As for the experimental part: (§1) A549, PC3, MCF-7, HT-29, WRL68 and MCF-7 cells were obtained from the ATTC (Rockville, MD, USA) and grown in RPMI-1640 medium, 10% fetal bovine serum (FBS) and 1% pen-strep, in humidified conditions at 5% CO2 and 37 °C. The different cell lines mentioned above were used to determine the inhibitory effects of compounds on cell growth using the MTT assay. This colorimetric assay is based on the conversion of the yellow tetrazolium bromide (MTT) to a purple formazan derivative by mitochondrial succinate dehydrogenase in viable cells. Cells were seeded in 96-well plate and incubated for 24 h at 37 °C with 5% CO2 saturation. After incubation, the cells were treated with different concentration of compounds and incubated for another 24 h. After 24 h of drug treatment, 20 µL of MTT solution at 5 mg/mL was added and incubated for 4 h. Dimethyl sulfoxide (DMSO) in volume of 100 µL is added into each well to dissolve the purple formazan formed. The colorimetric assay is measured and recorded at absorbance of 570 nm.
In general terms: Formazan colour is commonly taken as a measure of viable cells.

Data set [2] relates to human prostate cancer cell line PC3. Briefly: MTT cell viability assay, PC3. Type of data set: cell-based. Particulars: 24 h treatment. The protocol:
as §1

The subject of another data set is MCF-7 cells. As to the kind of experiment: Multiparametric high content screening (HCS) cytotoxicity/apoptosis assay. Format: cell-based, human. The following applies: for cell (membrane) permeability / cytochrome c release / mitochondrial membrane potential / total nuclear intensity (Hoechst 33342 nuclear chromatin staining) / cell loss: MCF-7, compounds 2-6 µg/mL; for cell (membrane) permeability / cytochrome c release / mitochondrial membrane potential / total nuclear intensity (Hoechst 33342 nuclear chromatin staining): tamoxifen 0.04 µg/mL, vs control; for cell loss: data not shown; for apoptosis in MCF-7 cells: shown by multiparameter cytotoxicity assay and caspase-3/7, -8, -9 activities, p < 0.05.

In data set [3] the test system is human adenocarcinoma cell line HT-29 (colorectal cancer). Briefly: MTT cell viability assay, HT-29. Format: cell-based. The following applies: 24 h treatment. The protocol:
as §1

Data set [4] deals with caspase-3/7 in MCF-7 cells. As to the kind of experiment: Caspase-Glo-3/7 activity. Type of data set: cell-based, human. Particulars: MCF-7, 24 h, highest concentration (6 µg/mL for 1); control 30,140 RLU. As for the experimental part: (§2) Due to the observation of significant cytotoxicity of selected compounds towards MCF-7 cells, the following analyses were done on them only. Cells were treated with compound 1 (1A- 3 µg/mL; 1B- 6 µg/mL), 23 (23A- 3 µg/mL; 23B- 6 µg/mL), 25 (25A- 2 µg/mL; 25B- 4 µg/mL) and 5 (5A- 3 µg/mL; 5B- 6 µg/mL).
(§3) Activity of cellular caspases was measured using the Caspase-Glo-9, Caspase-Glo-3/7 and Caspase-Glo-8 assay reagents (Promega), according to the manufacturer's instructions. The assays provide a luminogenic caspase-3/caspase-7 or caspase-8 or caspase-9 substrate, respectively, in a buffer system optimized for caspase activity measurement in cell lysates. The luciferase signal generated is proportional to the amount of caspase activity present. MCF-7 cells have no caspase-3 activity due to functional deletion of the CASP-3 gene. Therefore, the activity measured in this test is that of caspase-7. Briefly, cells were plated in opaque 96-well plates in triplicate and treated with […]. After 24 h treatment with compounds 1, 23, 25 and 5 as mentioned before, the assay reagents were added to the plates at room temperature and incubated for 60 min, and the luminescence was measured using a plate reader. All assays were done in triplicate, and means ± SD were calculated for each condition.

The test system of data set [5] is human breast adenocarcinoma cell line MCF-7. As to the kind of experiment: MTT cell viability assay, MCF-7. Type of data set: cell-based. Particulars: MCF7, 24 h treatment. The protocol:
as §1

The subject of data set [6] is MCF-7 (breast), A549 (lung), PC3 (prostate), HT-29 (colorectal) and WRL68 (liver). Briefly: MTT assay, summary over all five cell lines. Type of data set: cell-based, human. The following applies: for IC50: Homo sapiens, all five cell lines, read-out: IC50 in all cell lines. The protocol: as §1
Data set [7] deals with human lung adenocarcinoma cell line A549. Briefly: MTT cell viability assay, A549. Type of data set: cell-based. The following applies: 24 h treatment. The protocol: as §1
Another data set concerns ROS in MCF-7 cells. As to the kind of experiment: Intracellular ROS level (DCFDA). Format: cell-based, human. The following applies: MCF-7, 24 h, high concentration (6 µg/mL; 25: 4 µg/mL), vs untreated control, p < 0.05. The protocol:
as §2
The production of ROS was estimated by fluorescence using the redox-sensitive fluorescent probe DCFDA (Sigma). The oxidation of DCFDA by ROS converts the molecule to 2′,7′-dichlorodihydrofluorescein (DCF), which is highly fluorescent. Thus, ROS production by stimulated cells causes an increase in the fluorescence signal over time. ROS assays were performed as previously described (13). Briefly, the MCF-7 cells were seeded in 96-well plates (5 × 10^4 cells/well) and allowed to attach for 24 h. After 24 h treatment with compounds 1, 23, 25 and 5 as mentioned before, the cells were washed three times with PBS and incubated for 60 min with […] DCFDA at room temperature. Again the wells were washed with PBS. Fresh PBS was added (100 μL/well) and DCF fluorescence was detected using a Tecan Infinite M200 fluorescence microplate reader at excitation and emission wavelengths of 485 and 528 nm, respectively. The fluorescence intensity unit of treatments was compared with control.

A further data set relates to caspase-8 in MCF-7 cells. As to the kind of experiment: Caspase-Glo-8 activity. Format: cell-based, human. The following applies: MCF-7, 24 h, highest concentrations (6 µg/mL; 25: 4 µg/mL); control printed 50892 RLU; p < 0.05. The protocol:
as §2, §3

In brackets after ≈: the same amount, converted by molar mass. Like-named read-outs stand apart in the source and are kept apart here.

Consider `O=C(/C=C/c1ccccc1)c1ccccc1` [Compound 1, 1,3-Diphenylpropenone], for which, in data set [1], the half-inhibitory concentration (IC50) stood at 10.6 ± 0.89 µg/mL (≈ 50.7 µM). This compound also came in with a half-inhibitory concentration (IC50) in [2] of 9.11 ± 0.9 µg/mL (≈ 43.7 µM). Moreover, in the data set on MCF-7 cells, the “cell (membrane) permeability” value is recorded as “increased cell permeability”, the cytochrome c release entry was “cytochrome c release from mitochondria”, the mitochondrial membrane potential entry is reported as “loss of mitochondrial membrane potential” and the “total nuclear intensity (Hoechst 33342 nuclear chromatin staining)” value (“total nuclear intensity” for short) is “increased total nuclear intensity”. In addition, in the data set on MCF-7 cells, the cell loss entry is listed as “statistically significant cell loss” and the “apoptosis in MCF-7 cells” value is “capable in eliciting apoptosis”. Also, the half-maximal inhibitory concentration (IC50) in data set [3] turned out to be 10.1 ± 1.01 µg/mL (≈ 48.5 µM). Besides, in data set [4], the “caspase-3/7 activity at highest concentration” value is recorded as 210430 RLU. Further, in [5], half-maximal inhibition (IC50) required 6.88 ± 0.219 µg/mL (≈ 33 µM). Moreover, the IC50 in data set [6] (MTT) is below 20 µg/mL. For the same compound, the “cytotoxic effect in words” value in data set [6] (all cell lines, MTT) was “high cytotoxicity”. Moreover, the midpoint of inhibition in data set [7], the IC50, lay at 16.8 ± 1.08 µg/mL (≈ 80.5 µM).
Turning to `O=C(/C=C/c1ccccc1Cl)c1ccccc1` [Compound 5, 3-(2-Chlorophenyl)-1-phenylpropenone], the melting point was in the range of 53 to 54 °C. Moreover, in the data set on ROS in MCF-7 cells, the “ROS increase at high concentration” value worked out at 2.7 fold. Besides, half-maximal inhibition in data set [1] (IC50) required 11.5 ± 1.1 µg/mL (≈ 47.2 µM). In addition, inhibition in data set [2] was half-maximal at 13.8 ± 1.2 µg/mL (≈ 57 µM) (IC50). Also, in the data set on MCF-7 cells, the “cell (membrane) permeability” value is reported as “increased cell permeability”, the cytochrome c release entry is “cytochrome c release from mitochondria”, the mitochondrial membrane potential result is “loss of mitochondrial membrane potential” and the “total nuclear intensity” value is “increased total nuclear intensity”. Moreover, in the data set on MCF-7 cells, the cell loss result is on record as “statistically significant cell loss” and the “apoptosis in MCF-7 cells” value is given as “capable in eliciting apoptosis”. Further, the IC50 in data set [3] was determined as 13.2 ± 1.2 µg/mL (≈ 54.6 µM). Further, half-maximal inhibition in data set [5] (IC50) required 7.99 ± 0.81 µg/mL (≈ 32.9 µM). Also, the “cytotoxic effect in words” value in [6] is recorded as “high cytotoxicity”. Further, the IC50 in data set [6] (MTT) is below 20 µg/mL. The same compound had a concentration for half-maximal inhibition (IC50) in data set [7] of 19.9 ± 1.66 µg/mL (≈ 82.2 µM).
`Cc1ccc(C(=O)/C=C/c2ccccc2O)cc1` [Compound 23, 3-(2-Hydroxyphenyl)-1-p-tolylpropenone] showed a melting point of 165 to 167 °C. Moreover, the “caspase-8 activity at highest concentration” value in the data set with caspase-8 in MCF-7 cells was 18,342 RLU. The IC50 in data set [1] stood at 9.53 ± 1.5 µg/mL (≈ 40 µM). Moreover, the half-maximal inhibitory concentration (IC50) in data set [2] amounted to 9.49 ± 0.7 µg/mL (≈ 39.8 µM). In the data set with MCF-7 cells, the “cell (membrane) permeability” value is “increased cell permeability”, the cytochrome c release entry was “cytochrome c release from mitochondria”, the mitochondrial membrane potential entry is on record as “loss of mitochondrial membrane potential” and the “total nuclear intensity” value is given as “increased total nuclear intensity”. In addition, in the data set with MCF-7 cells, the cell loss result is listed as “statistically significant cell loss” and the “apoptosis in MCF-7 cells” value is “capable in eliciting apoptosis”. Besides, it took 13 ± 0.54 µg/mL (≈ 54.5 µM) to reach half-maximal inhibition in [3] (IC50). Further, the half-inhibitory concentration (IC50) in data set [5] amounted to 6.87 ± 1.2 µg/mL (≈ 28.8 µM). Besides, the “cytotoxic effect in words” value in data set [6] was “high cytotoxicity”. Also, the IC50 in data set [6] (MTT) was below 20 µg/mL. For the same compound, in data set [7], inhibition was half-maximal at 16.8 ± 1.76 µg/mL (≈ 70.5 µM) (IC50).
`O=C(/C=C/c1cccc(Cl)c1)c1ccccc1` [Compound 25, 3-(3-Chlorophenyl)-1-phenylpropenone]: the “caspase-8 activity at highest concentration” value with caspase-8 in MCF-7 cells was 18,356 RLU. Besides, the IC50 is 7.72 ± 1.6 µg/mL (≈ 31.8 µM) in [1]; 6.94 ± 0.61 µg/mL (≈ 28.6 µM) in [2]; 7.77 ± 1.1 µg/mL (≈ 32 µM) in [3]; 5.25 ± 0.67 µg/mL (≈ 21.6 µM) in [5]; below 20 µg/mL in data set [6] (MTT); 14.5 ± 0.2 µg/mL (≈ 59.7 µM) in [7]. Moreover, in the data set with MCF-7 cells, the “cell (membrane) permeability” value is given as “increased cell permeability”. Also, the cytochrome c release entry in the data set with MCF-7 cells is “cytochrome c release from mitochondria”. Further, the mitochondrial membrane potential result with MCF-7 cells was “loss of mitochondrial membrane potential”. Further, the “total nuclear intensity” value in the data set on MCF-7 cells was “increased total nuclear intensity”. Further, the cell loss result in the data set with MCF-7 cells is recorded as “statistically significant cell loss”. Further, the “apoptosis in MCF-7 cells” value in the data set on MCF-7 cells was “capable in eliciting apoptosis”. Further, in data set [6], the “cytotoxic effect in words” value was “high cytotoxicity”.

What is called IC50 is the concentration that inhibits the measured activity by half. The melting point is the temperature of the solid-liquid transition.
